Source: ChEMBL document CHEMBL1132474, “Synthesis and biological evaluation of the first N-alkyl cage dimeric 4-aryl-1,4-dihydropyridines as novel nonpeptidic HIV-1 protease inhibitors” (J Med Chem, 1999)

Key:
[1] = biological target: T1, Human immunodeficiency virus type 1 protease (Human immunodeficiency virus 1, UniProt Q72874); test: compound was evaluated for the inhibition of HIV-1 protease
[2] = biological target: T1, Human immunodeficiency virus type 1 protease; test: Compound was evaluated for its binding affinity against HIV-1 protease

| SMILES | IC50 [1] [µM] | Ki [2] [µM] |
| --- | --- | --- |
| COc1ccc([C@H]2[C@]3(CO)C4N(C)C5[C@]2(CO)C2N(C)C3[C@]4(CO)[C@H](c3ccc(OC)cc3)[C@]52CO)cc1 | 195 | – |
| OC[C@]12C3NC4[C@](CO)(C5NC1[C@]3(CO)[C@H](c1ccccc1)[C@@]45CO)[C@H]2c1ccccc1 | 227 | – |
| CN1C2[C@]3(CO)C4N(C)C5[C@@](CO)(C1[C@@]5(CO)[C@@H](c1ccccc1)[C@]24CO)[C@H]3c1ccccc1 | 262 | – |
| OC[C@]12C3N(Cc4ccccc4)C4[C@](CO)(C5N(Cc6ccccc6)C1[C@]3(CO)[C@H](c1ccccc1)[C@@]45CO)[C@H]2c1ccccc1 | 16.1 | 7.8 |
| COc1ccc([C@H]2[C@@]3(CO)C4N(Cc5ccccc5)C5[C@]2(CO)C2N(Cc6ccccc6)C3[C@]4(CO)[C@H](c3ccc(OC)cc3)[C@@]52CO)cc1 | 33 | – |
| COc1ccc([C@H]2[C@]3(CO)C4NC5[C@@]2(CO)C2NC3[C@@]4(CO)[C@H](c3ccc(OC)cc3)[C@]52CO)cc1 | 209 | – |
